Among the data in PubChem BioAssay AID504820 (Southern Research Specialized Biocontainment Screening …, 2011) are IC50 and CPE inhibition values, retold here.

The structures appear in SMILES notation. pIC50: −log10 of the molar value. Where “and” joins values, the source holds several entries; their conditions need not be identical. Equal values may be shown once. Calls of active or inactive are those of the source. The rule behind the calls is not given here.

In general, pIC50 refers to −log10 of the IC50, conventionally taken in molar units.

The test system of the first test is HEp-2 cells, RSV cytopathic effect inhibition. The test is described as follows: RSV-induced CPE protection of HEp-2 cells – cell-based, synthesized compounds, set 8, dose response (AID 504820).
Details: not given
Turning to `Cc1cccc(NC(=O)[C@@H]2CCCN2S(=O)(=O)c2cccc3cccnc23)c1C`, the pIC50 is 5.05.

`Cc1ccc(Cn2c(=O)n(Cc3ccc(C(=O)NC(C)(C)C)cc3)c(=O)c3ccccc32)cc1`: the pIC50 was 5.90.

For the compound `COCCCNC(=O)c1ccc(Cn2c(=O)c3ccccc3n(Cc3ccc(C(F)(F)F)cc3)c2=O)cc1`, the pIC50 is 5.85.

Consider `COCCCNC(=O)c1ccc(Cn2c(=O)c3ccccc3n(Cc3ccc([N+](=O)[O-])cc3)c2=O)cc1`, for which the pIC50 is 6.26.

Consider `CCc1ccccc1NC(=O)[C@@H]1CCCN1S(=O)(=O)c1cccc2cccnc12`, for which the negative-log IC50 (pIC50) is 4.68.

With `Cc1ccc(Cn2c(=O)n(Cc3ccc(C(=O)Nc4ccncc4)cc3)c(=O)c3ccccc32)cc1`, the pIC50 was 5.58.

`COCCCNC(=O)c1ccc(Cn2c(=O)c3ccccc3n(Cc3ccc(Br)cc3)c2=O)cc1`: the pIC50 is 5.94.

As for `COCCCNC(=O)c1ccc(Cn2c(=O)c3ccccc3n(Cc3ccc4nonc4c3)c2=O)cc1`, the pIC50 was 5.33.

As to `Cc1ccc(C)c(NC(=O)[C@@H]2CCCN2S(=O)(=O)c2cccc3cccnc23)c1`, the negative logarithm of the IC50 (pIC50) was 5.54 and 5.77.

`Cc1ccc(Cl)cc1NC(=O)[C@@H]1CCCN1S(=O)(=O)c1cccc2cccnc12`: the pIC50 was 5.60.

Take `Cc1ccc(NC(=O)C2CCCN2S(=O)(=O)c2cccc3cccnc23)c(C)c1` (configuration not stated): the negative-log IC50 (pIC50) is 4.90.

Turning to `COCCCNC(=O)c1ccc(Cn2c(=O)c3ccccc3n(Cc3ccc(OC)cc3)c2=O)cc1`, the pIC50 is 5.64.

Take `COCCCNC(=O)c1ccc(Cn2c(=O)c3ccccc3n(Cc3ccc(C)c(C(F)(F)F)c3)c2=O)cc1`: the pIC50 is 5.82.

With `CC(C)c1ccccc1NC(=O)[C@@H]1CCCN1S(=O)(=O)c1cccc2cccnc12`, the pIC50 was 4.76.

As for `COc1ccccc1CNC(=O)C1CCN(S(=O)(=O)c2cccc3nonc23)CC1`, the negative-log IC50 (pIC50) is 5.47.

For `Cc1ccccc1NC(=O)[C@@H]1CCCN1S(=O)(=O)c1cccc2cccnc12`, the pIC50 was 4.54.

`COc1ccc(C)c(NC(=O)[C@@H]2CCCN2S(=O)(=O)c2cccc3cccnc23)c1`: the pIC50 was 5.32.

In the case of `Cc1ccc(NC(=O)[C@@H]2CCCN2S(=O)(=O)c2cccc3cccnc23)c(C)c1`, the pIC50 is 5.52.

System in another test: not listed separately
The test is described as above. The conditions noted are these: HEp-2 cells, RSV cytopathic effect inhibition; at 50 µM (top of the series). On the technique in general: Protection from cytopathic effect is a common read-out in antiviral testing.
For the compound `Cc1ccc(NC(=O)C2CCCN2S(=O)(=O)c2ccccc2)c(C)c1` (configuration not stated), the CPE inhibition is 1.19% (inactive).

On to `Cc1cc(C)cc(NC(=O)[C@@H]2CCCN2S(=O)(=O)c2cccc3cccnc23)c1`, for which the CPE inhibition is 33.1% (inactive).

On to `Cc1ccc(C(F)(F)F)cc1NC(=O)[C@@H]1CCCN1S(=O)(=O)c1cccc2cccnc12`, for which the CPE inhibition was 15% (inactive).

Consider `Cc1ccc(Cn2c(=O)n(Cc3ccc(C(=O)Nc4cc(C)nc5ccccc45)cc3)c(=O)c3ccccc32)cc1`, for which the CPE inhibition is 2.83% (inactive).

For the compound `Cc1ccc(NC(=O)[C@@H]2CCCN2S(=O)(=O)c2cccc3cccnc23)cc1`, the CPE inhibition is 25.5% (inactive).

For `O=C(Nc1ccc(Cl)cc1Cl)[C@@H]1CCCN1S(=O)(=O)c1cccc2cccnc12`, the CPE inhibition is 2.1% (inactive).

In the case of `Cc1cc(NC(=O)[C@@H]2CCCN2S(=O)(=O)c2cccc3cccnc23)n(C(C)(C)C)n1`, the CPE inhibition is 33.2% (inactive).

In the case of `Cc1ncccc1NC(=O)[C@@H]1CCCN1S(=O)(=O)c1cccc2cccnc12`, the CPE inhibition is 3.67% (inactive).

For `COCCCNC(=O)c1ccc(Cn2c(=O)c3ccccc3n(Cc3cc(C)on3)c2=O)cc1`, the CPE inhibition is 6.33% (inactive).

With `Cc1ccc(NC(=O)C2CCCN2S(=O)(=O)c2cccc3cc(C)cnc23)c(C)c1` (configuration not stated), the CPE inhibition was 11.1% (inactive).

Regarding `Cc1ccc(NC(=O)C2CCCN2S(C)(=O)=O)c(C)c1` (configuration not stated), the CPE inhibition was 2.52% (inactive).

As for `COCCCNC(=O)c1ccc(Cn2c(=O)c3ccccc3n(C)c2=O)cc1`, the CPE inhibition was 19.2% (inactive).

For the compound `Cc1ccc(C(C)C)cc1NC(=O)[C@@H]1CCCN1S(=O)(=O)c1cccc2cccnc12`, the CPE inhibition was 7.9% (inactive).

On to `CC(C)(C)NC(=O)[C@@H]1CCCN1S(=O)(=O)c1cccc2cccnc12`, for which the CPE inhibition is 1.38% (inactive).

As to `Cc1ccc(F)cc1NC(=O)[C@@H]1CCCN1S(=O)(=O)c1cccc2cccnc12`, the CPE inhibition is 10.8% (inactive).

Regarding `Cc1ccc(NC(=O)[C@H]2CCCN2S(=O)(=O)c2cccc3cccnc23)c(C)c1`, the CPE inhibition is 26.6% (inactive).

Regarding `O=C([C@@H]1CCCN1S(=O)(=O)c1cccc2cccnc12)N1CCOCC1`, the CPE inhibition is 1.71% (inactive).

In the case of `Cc1cccc(NC(=O)[C@@H]2CCCN2S(=O)(=O)c2cccc3cccnc23)c1`, the CPE inhibition was 12.8% (inactive).

In the case of `Cc1ccc(NC(=O)C2CCCN2S(=O)(=O)c2cccc3cnccc23)c(C)c1` (configuration not stated), the CPE inhibition is 3.25% (inactive).

`Cc1ccc(NC(=O)C(C)NS(=O)(=O)c2cccc3cccnc23)c(C)c1` (configuration not stated): the CPE inhibition was 4.35% (inactive).

Turning to `Cc1ccc(NC(=O)CN(C)S(=O)(=O)c2cccc3cccnc23)c(C)c1`, the CPE inhibition was 46% (inactive).

Take `Cc1ccc(NC(=O)[C@@H]2CCCN2S(=O)(=O)c2cccc3cccnc23)c(C)n1`: the CPE inhibition is 4.2% (inactive).

With `Cc1ccc(C(C)(C)C)cc1NC(=O)[C@@H]1CCCN1S(=O)(=O)c1cccc2cccnc12`, the CPE inhibition was 2.81% (inactive).

On to `Cc1ccc(Cn2c(=O)n(Cc3ccc(C(=O)Nc4nccs4)cc3)c(=O)c3ccccc32)cc1`, for which the CPE inhibition was 2.96% (inactive).

`O=C(Nc1ccccc1)[C@@H]1CCCN1S(=O)(=O)c1cccc2cccnc12`: the CPE inhibition was 12.2% (inactive).

On to `CCCn1c(=O)n(Cc2ccc(C(=O)NCCCOC)cc2)c(=O)c2ccccc21`, for which the CPE inhibition was 2.28% (inactive).

For `COCCCNC(=O)c1ccc(Cn2c(=O)c3ccc(Br)cc3n(Cc3ccc(C)cc3)c2=O)cc1`, the CPE inhibition is 1.9% (inactive).

Consider `Cc1ccc(NC(=O)CNS(=O)(=O)c2cccc3cccnc23)c(C)c1`, for which the CPE inhibition was 4.34% (inactive).

Take `Cc1cccc(C)c1NC(=O)[C@@H]1CCCN1S(=O)(=O)c1cccc2cccnc12`: the CPE inhibition is 44.1% (inactive).

On to `COc1ccc(C)cc1NC(=O)[C@@H]1CCCN1S(=O)(=O)c1cccc2cccnc12`, for which the CPE inhibition was 4.82% (inactive).

Take `Cc1ccc(NC(=O)[C@@H]2CCCN2S(=O)(=O)c2cccc3nonc23)c(C)c1`: the CPE inhibition is 6.16% (inactive).

As for `Cc1ccc(NC(=O)C2CCCN2S(=O)(=O)c2ccc3ncccc3c2)c(C)c1` (configuration not stated), the CPE inhibition was 1.75% (inactive).

On to `Cc1ccc(Cl)c(NC(=O)[C@@H]2CCCN2S(=O)(=O)c2cccc3cccnc23)c1`, for which the CPE inhibition is 8.49% (inactive).

Consider `Cc1ccc(NC(=O)C2CCCN2S(=O)(=O)c2cccc3ccccc23)c(C)c1` (configuration not stated), for which the CPE inhibition is 1.6% (inactive).
